# According to patent publication US4312867A, “Antibacterial compounds, processes for their preparation and compositions containing them” (Beecham Group Limited, priority 1979, dated 1982):
# Read-outs that look alike come from different tables or passages of the source.
# Experiments:
# Format in all cases: cell-based
# [1] = test system: M dispar H225; assay: in vitro anti-mycoplasmal MIC, Friis' broth (Table 3)
# Protocol: (§1) The minimum inhibitory concentrations (MIC) of the examples were determined by either:
# (§2) (i) in Friis' broth using microtitre plates, by modification of the metabolic-inhibition test (Taylor-Robinson, Post Frad, Med. J., 1967, 43, 100).
# [2] = test system: M dispar NCTC 10125; assay: as above
# Protocol: as §1, §2
# [3] = test system: M fermentans MWKL4; assay: as above
# Protocol: as §1, §2
# [4] = test system: M pneumoniae 427a; assay: as above
# Protocol: as §1, §2
# [5] = test system: M pneumoniae ATCC 15492; assay: as above
# Protocol: as §1, §2
# [6] = test system: M pulmonis JB; assay: as above
# Protocol: as §1, §2
# [7] = test system: M suipneumoniae J2206/183b; assay: as above
# Protocol: as §1, §2
# [8] = test system: M suipneumoniae Str 11; assay: as above
# Protocol: as §1, §2
# [9] = test system: M alkalescens NCTC 10135; assay: in vitro anti-mycoplasmal MIC, Friis' agar (Table 3)
# Protocol: as §1
# (§3) or (ii) by serial dilution in Friis' agar medium.
# [10] = test system: M arthritidis ATCC 14124; assay: as above
# Protocol: as §1, §3
# [11] = test system: M bovigenitalium ATCC 14173; assay: as above
# Protocol: as §1, §3
# [12] = test system: M fermentans MWKL4; assay: as above
# Protocol: as §1, §3
# [13] = test system: M gallisepticum S6; assay: as above
# Protocol: as §1, §3
# [14] = test system: M hyosynoviae ATCC 25591; assay: as above
# Protocol: as §1, §3
# [15] = test system: M pneumoniae 427a; assay: as above
# Protocol: as §1, §3
# [16] = test system: M pneumoniae ATCC 15492; assay: as above
# Protocol: as §1, §3
# [17] = test system: M pulmonis JB; assay: as above
# Protocol: as §1, §3
# [18] = test system: M synoviae ATCC 25204; assay: as above
# Protocol: as §1, §3
# [19] = test system: B. subtilis ATCC 6633; assay: MIC veterinary bacteria (Table 2), serial dilution in agar; settings: diagnostic sensitivity test agar
# [20] = test system: M. suipneumoniae NB12; assay: anti-mycoplasmal MIC, Friis broth solidified with agarose (Table 4); settings: Mesomycoplasma hyopneumoniae
# [21] = test system: M. suipneumoniae JF435; assay: as above; settings: Mesomycoplasma hyopneumoniae
# [22] = test system: M. suipneumoniae HK(2); assay: as above; settings: Mesomycoplasma hyopneumoniae, 144 h, 6 days at 37° C.
# [23] = test system: M. suipneumoniae J2206/183b; assay: as above; settings: Mesomycoplasma hyopneumoniae, 144 h, 6 days at 37° C.
# [24] = test system: M. suipneumoniae PW/C/210; assay: as above; settings: Mesomycoplasma hyopneumoniae, 144 h, 6 days at 37° C.
# [25] = test system: M. suipneumoniae LABER; assay: as above; settings: Mesomycoplasma hyopneumoniae, 144 h, 6 days at 37° C.
# [26] = test system: M. suipneumoniae UCD1; assay: as above; settings: Mesomycoplasma hyopneumoniae, 144 h, 6 days at 37° C.
# [27] = test system: M. suipneumoniae TAM 6N; assay: as above; settings: Mesomycoplasma hyopneumoniae, TAM6N, 144 h, 6 days at 37° C.
# [28] = test system: M. suipneumoniae ATCC 25095; assay: as above; settings: Mesomycoplasma hyopneumoniae, ATCC25095, 144 h, 6 days at 37° C.
# [29] = test system: M. suipneumoniae NCTC 10110; assay: as above; settings: Mesomycoplasma hyopneumoniae, NCTC10110, 144 h
# [30] = test system: M. hyorhinis ATCC 23234; assay: as above; settings: Mesomycoplasma hyorhinis, ATCC23234, 144 h, 6 days at 37° C.
# [31] = test system: M. hyorhinis ATCC 25021; assay: as above; settings: Mesomycoplasma hyorhinis, ATCC25021, 144 h, 6 days at 37° C.
# [32] = test system: M. hyosynoviae ATCC 25591; assay: as above; settings: 144 h
# [33] = test system: M. bovis NCTC 10131; assay: microbe, parasite or virus in culture; settings: NCTC10131, 144 h
# [34] = test system: M. bovigenitalium ATCC 14173; assay: anti-mycoplasmal MIC, Friis broth solidified with agarose (Table 4); settings: 144 h
# [35] = test system: M. gallisepticum S6; assay: as above; settings: Mycoplasmoides gallisepticum
# [36] = test system: M. pneumoniae ATCC 15492; assay: as above; settings: Mycoplasmoides pneumoniae, ATCC15492, 144 h, 6 days at 37° C.
# [37] = test system: 12 strains of M. suipneumoniae; assay: anti-mycoplasmal MIC, Friis broth solidified with agarose (Table 4), mean over strains; settings: Mesomycoplasma hyopneumoniae, 144 h; mean of 12 strains; 6 days at 37° C.; read-out: Mean MIC for above 12 strains of M. suipneumoniae
# [38] = test system: M bovis ATCC 25025; assay: in vitro anti-mycoplasmal MIC, Friis' agar (Table 3)
# Protocol: as §1, §3
# [39] = test system: M bovis NCTC 10131; assay: as above
# Protocol: as §1, §3
# [40] = test system: Past haemolytica PA5; assay: MIC veterinary bacteria (Table 2), serial dilution in agar; settings: diagnostic sensitivity test agar
smiles,measurement,setting,value
"C/C(=C\C(=O)OCCCCCCCCS(N)(=O)=O)CC1OCC(CC2OC2C(C)C(C)O)C(O)C1O (centres unmarked) [Example 3, 8-Sulphamoyloctyl monate A]",MIC,[1],0.02 µg/mL
same,MIC,[2],0.02 µg/mL
same,MIC,[3],0.02 µg/mL
same,MIC,[4],0.312 µg/mL
same,MIC,[5],0.312 µg/mL
same,MIC,[6],0.02 µg/mL
same,MIC,[7],0.156 µg/mL
same,MIC,[8],0.02 µg/mL
same,MIC,[9],< 0.02 µg/mL
same,MIC,[10],5 µg/mL
same,MIC,[11],< 0.039 µg/mL
same,MIC,[12],0.039 µg/mL
same,MIC,[13],2.5 µg/mL
same,MIC,[14],0.078 µg/mL
same,MIC,[15],0.312 µg/mL
same,MIC,[16],0.625 µg/mL
same,MIC,[17],0.039 µg/mL
same,MIC,[18],< 0.02 µg/mL
"C/C(=C\C(=O)OC(C)CCCCCS(N)(=O)=O)CC1OCC(CC2OC2C(C)C(C)O)C(O)C1O (centres unmarked) [Example 5, 7-Sulphamoylhept-2-yl monate A]",MIC,[19],No Growth
same,MIC,"[20]; 144 h, M. suipneumoniae NB12, 6 days at 37° C., read-out: MIC",500 µg/mL
same,MIC,"[21]; 144 h, M. suipneumoniae JF435, 6 days at 37° C., read-out: MIC",500 µg/mL
same,MIC,[22],1000 µg/mL
same,MIC,[23],500 µg/mL
same,MIC,[24],250 µg/mL
same,MIC,[25],250 µg/mL
same,MIC,[26],1000 µg/mL
same,MIC,[27],500 µg/mL
same,MIC,[28],250 µg/mL
same,MIC,"[29]; M. suipneumoniae NCTC 10110, 6 days at 37° C., read-out: MIC",500 µg/mL
same,MIC,[30],250 µg/mL
same,MIC,[31],250 µg/mL
same,MIC,[32],100 µg/mL
same,MIC,[33],≤ 10 µg/mL
same,MIC,"[34]; M. bovigenitalium ATCC 14173, 6 days at 37° C., read-out: MIC",50 µg/mL
same,MIC,"[35]; S6, 144 h",2500 µg/mL
same,MIC,[36],1000 µg/mL
same,MIC,[37],480 µg/mL
"C/C(=C\C(=O)OCCCCCCS(N)(=O)=O)CC1OCC(CC2OC2C(C)C(C)O)C(O)C1O (centres unmarked) [Example 2, 6-Sulphamoylhexyl monate A]",MIC,[1],< 0.02 µg/mL
same,MIC,[2],< 0.02 µg/mL
same,MIC,[3],< 0.02 µg/mL
same,MIC,[4],0.312 µg/mL
same,MIC,[5],0.312 µg/mL
same,MIC,[6],< 0.02 µg/mL
same,MIC,[7],0.156 µg/mL
same,MIC,[8],≤ 0.02 µg/mL
same,MIC,[9],< 0.02 µg/mL
same,MIC,[10],5 µg/mL
same,MIC,[11],≤ 0.02 µg/mL
same,MIC,[38],< 0.02 µg/mL
same,MIC,[39],< 0.02 µg/mL
same,MIC,[12],0.039 µg/mL
same,MIC,[13],2.5 µg/mL
same,MIC,[14],0.039 µg/mL
same,MIC,[15],0.312 µg/mL
same,MIC,[16],0.625 µg/mL
same,MIC,[17],≤ 0.02 µg/mL
same,MIC,[18],< 0.02 µg/mL
"C/C(=C\C(=O)OCCCS(=O)(=O)N(C)C)CC1OCC(CC2OC2C(C)C(C)O)C(O)C1O (centres unmarked) [Example 4, 3-N,N-Dimethylsulphamoylpropyl monate A]",MIC,[40],10 µg/mL
same,MIC,[19],No Growth
same,MIC,"[20]; NB12, 144 h",500 µg/mL
same,MIC,"[21]; JF435, 144 h",1000 µg/mL
same,MIC,[22],1000 µg/mL
same,MIC,[23],1000 µg/mL
same,MIC,[24],500 µg/mL
same,MIC,[25],500 µg/mL
same,MIC,[26],1000 µg/mL
same,MIC,[27],1000 µg/mL
same,MIC,[28],500 µg/mL
same,MIC,[29],1000 µg/mL
same,MIC,[30],250 µg/mL
same,MIC,[31],250 µg/mL
same,MIC,"[32]; M. hyosynoviae ATCC 25591, 6 days at 37° C., read-out: MIC",250 µg/mL
same,MIC,[33],≤ 10 µg/mL
same,MIC,[34],50 µg/mL
same,MIC,"[35]; 144 h, M. gallisepticum S6, 6 days at 37° C., read-out: MIC",> 10000 µg/mL
same,MIC,[36],5000 µg/mL
same,MIC,[37],750 µg/mL
